Measured values as given in BigSolDB 2.1.

`Nc1n[nH]c(=S)s1` gave a solubility (mole fraction) (in acetone, 283.15 K) of 0.0101, a solubility (mole fraction) (in acetone, 288.15 K) of 0.0107 and a solubility (mole fraction) (in acetone, 293.15 K) of 0.0114. It also gave a solubility (mole fraction) (in acetone, 298.15 K) of 0.0121, a solubility (mole fraction) (in acetone, 303.15 K) of 0.0129 and a solubility (mole fraction) (in acetone, 308.15 K) of 0.0135. The solubility (mole fraction) (in acetone, 313.15 K) was 0.0142, the solubility (mole fraction) (in acetone, 318.15 K) was 0.015 and the solubility (mole fraction) (in acetone, 323.15 K) was 0.0158. It also gave a solubility (mole fraction) (in cyclohexanone, 283.15 K) of 0.0325, a solubility (mole fraction) (in cyclohexanone, 288.15 K) of 0.0343 and a solubility (mole fraction) (in cyclohexanone, 293.15 K) of 0.036. The solubility (mole fraction) (in cyclohexanone, 298.15 K) was 0.0378, the solubility (mole fraction) (in cyclohexanone, 303.15 K) was 0.0397 and the solubility (mole fraction) (in cyclohexanone, 308.15 K) was 0.0415. It also gave a solubility (mole fraction) (in cyclohexanone, 313.15 K) of 0.0433, a solubility (mole fraction) (in cyclohexanone, 318.15 K) of 0.0449 and a solubility (mole fraction) (in cyclohexanone, 323.15 K) of 0.0467. For the same molecule, the solubility (mole fraction) (in ethanol, 283.15 K) was 0.00402, the solubility (mole fraction) (in ethanol, 288.15 K) was 0.00442 and the solubility (mole fraction) (in ethanol, 293.15 K) was 0.00486. For the same molecule, the solubility (mole fraction) (in ethanol, 298.15 K) was 0.00526, the solubility (mole fraction) (in ethanol, 303.15 K) was 0.00578 and the solubility (mole fraction) (in ethanol, 308.15 K) was 0.00629. The solubility (mole fraction) (in ethanol, 313.15 K) was 0.00684, the solubility (mole fraction) (in ethanol, 318.15 K) was 0.00741 and the solubility (mole fraction) (in ethanol, 323.15 K) was 0.008. It also gave a solubility (mole fraction) (in ethyl acetate, 283.15 K) of 0.00203, a solubility (mole fraction) (in ethyl acetate, 288.15 K) of 0.00222 and a solubility (mole fraction) (in ethyl acetate, 293.15 K) of 0.00242. For the same molecule, the solubility (mole fraction) (in ethyl acetate, 298.15 K) was 0.00263, the solubility (mole fraction) (in ethyl acetate, 303.15 K) was 0.0028 and the solubility (mole fraction) (in ethyl acetate, 308.15 K) was 0.00301. The solubility (mole fraction) (in ethyl acetate, 313.15 K) was 0.00326, the solubility (mole fraction) (in ethyl acetate, 318.15 K) was 0.0035 and the solubility (mole fraction) (in ethyl acetate, 323.15 K) was 0.00374. For the same molecule, the solubility (mole fraction) (in isobutanol, 283.15 K) was 0.00148, the solubility (mole fraction) (in isobutanol, 288.15 K) was 0.0017 and the solubility (mole fraction) (in isobutanol, 293.15 K) was 0.00197. For the same molecule, the solubility (mole fraction) (in isobutanol, 298.15 K) was 0.00225, the solubility (mole fraction) (in isobutanol, 303.15 K) was 0.00257 and the solubility (mole fraction) (in isobutanol, 308.15 K) was 0.00289. It also gave a solubility (mole fraction) (in isobutanol, 313.15 K) of 0.00333, a solubility (mole fraction) (in isobutanol, 318.15 K) of 0.00376 and a solubility (mole fraction) (in isobutanol, 323.15 K) of 0.0042. For the same molecule, the solubility (mole fraction) (in isopropanol, 283.15 K) was 0.00224, the solubility (mole fraction) (in isopropanol, 288.15 K) was 0.00259 and the solubility (mole fraction) (in isopropanol, 293.15 K) was 0.00302. For the same molecule, the solubility (mole fraction) (in isopropanol, 298.15 K) was 0.00351, the solubility (mole fraction) (in isopropanol, 303.15 K) was 0.00397 and the solubility (mole fraction) (in isopropanol, 308.15 K) was 0.00447. It also gave a solubility (mole fraction) (in isopropanol, 313.15 K) of 0.00501, a solubility (mole fraction) (in isopropanol, 318.15 K) of 0.0057 and a solubility (mole fraction) (in isopropanol, 323.15 K) of 0.0065. It also gave a solubility (mole fraction) (in methanol, 283.15 K) of 0.00454, a solubility (mole fraction) (in methanol, 288.15 K) of 0.00505 and a solubility (mole fraction) (in methanol, 293.15 K) of 0.00553. The solubility (mole fraction) (in methanol, 298.15 K) was 0.00617, the solubility (mole fraction) (in methanol, 303.15 K) was 0.00676 and the solubility (mole fraction) (in methanol, 308.15 K) was 0.00737. The solubility (mole fraction) (in methanol, 313.15 K) was 0.00806, the solubility (mole fraction) (in methanol, 318.15 K) was 0.00882 and the solubility (mole fraction) (in methanol, 323.15 K) was 0.00961. The solubility (mole fraction) (in methyl acetate, 283.15 K) was 0.0022, the solubility (mole fraction) (in methyl acetate, 288.15 K) was 0.00239 and the solubility (mole fraction) (in methyl acetate, 293.15 K) was 0.0026. It also gave a solubility (mole fraction) (in methyl acetate, 298.15 K) of 0.00285, a solubility (mole fraction) (in methyl acetate, 303.15 K) of 0.00308 and a solubility (mole fraction) (in methyl acetate, 308.15 K) of 0.00332. The solubility (mole fraction) (in methyl acetate, 313.15 K) was 0.00361, the solubility (mole fraction) (in methyl acetate, 318.15 K) was 0.00386 and the solubility (mole fraction) (in methyl acetate, 323.15 K) was 0.00411. For the same molecule, the solubility (mole fraction) (in n-butanol, 283.15 K) was 0.00216, the solubility (mole fraction) (in n-butanol, 288.15 K) was 0.00243 and the solubility (mole fraction) (in n-butanol, 293.15 K) was 0.00284. For the same molecule, the solubility (mole fraction) (in n-butanol, 298.15 K) was 0.00327, the solubility (mole fraction) (in n-butanol, 303.15 K) was 0.00372 and the solubility (mole fraction) (in n-butanol, 308.15 K) was 0.00427. It also gave a solubility (mole fraction) (in n-butanol, 313.15 K) of 0.0048, a solubility (mole fraction) (in n-butanol, 318.15 K) of 0.00546 and a solubility (mole fraction) (in n-butanol, 323.15 K) of 0.0061. It also gave a solubility (mole fraction) (in n-butyl acetate, 283.15 K) of 0.00158, a solubility (mole fraction) (in n-butyl acetate, 288.15 K) of 0.00172 and a solubility (mole fraction) (in n-butyl acetate, 293.15 K) of 0.00189. The solubility (mole fraction) (in n-butyl acetate, 298.15 K) was 0.00205, the solubility (mole fraction) (in n-butyl acetate, 303.15 K) was 0.00221 and the solubility (mole fraction) (in n-butyl acetate, 308.15 K) was 0.0024. For the same molecule, the solubility (mole fraction) (in n-butyl acetate, 313.15 K) was 0.0026, the solubility (mole fraction) (in n-butyl acetate, 318.15 K) was 0.00283 and the solubility (mole fraction) (in n-butyl acetate, 323.15 K) was 0.00304. The solubility (mole fraction) (in n-propanol, 283.15 K) was 0.0022, the solubility (mole fraction) (in n-propanol, 288.15 K) was 0.00259 and the solubility (mole fraction) (in n-propanol, 293.15 K) was 0.00293. For the same molecule, the solubility (mole fraction) (in n-propanol, 298.15 K) was 0.00341, the solubility (mole fraction) (in n-propanol, 303.15 K) was 0.00387 and the solubility (mole fraction) (in n-propanol, 308.15 K) was 0.0043. It also gave a solubility (mole fraction) (in n-propanol, 313.15 K) of 0.00489, a solubility (mole fraction) (in n-propanol, 318.15 K) of 0.00561 and a solubility (mole fraction) (in n-propanol, 323.15 K) of 0.00629. It also gave a solubility (mole fraction) (in n-propyl acetate, 283.15 K) of 0.00183, a solubility (mole fraction) (in n-propyl acetate, 288.15 K) of 0.00197 and a solubility (mole fraction) (in n-propyl acetate, 293.15 K) of 0.00212. The solubility (mole fraction) (in n-propyl acetate, 298.15 K) was 0.00228, the solubility (mole fraction) (in n-propyl acetate, 303.15 K) was 0.00243 and the solubility (mole fraction) (in n-propyl acetate, 308.15 K) was 0.00259. The solubility (mole fraction) (in n-propyl acetate, 313.15 K) was 0.00278, the solubility (mole fraction) (in n-propyl acetate, 318.15 K) was 0.00295 and the solubility (mole fraction) (in n-propyl acetate, 323.15 K) was 0.00316. The solubility (mole fraction) (in sec-butanol, 283.15 K) was 0.00247, the solubility (mole fraction) (in sec-butanol, 288.15 K) was 0.0029 and the solubility (mole fraction) (in sec-butanol, 293.15 K) was 0.00337. For the same molecule, the solubility (mole fraction) (in sec-butanol, 298.15 K) was 0.00397, the solubility (mole fraction) (in sec-butanol, 303.15 K) was 0.00451 and the solubility (mole fraction) (in sec-butanol, 308.15 K) was 0.0051. The solubility (mole fraction) (in sec-butanol, 313.15 K) was 0.00584, the solubility (mole fraction) (in sec-butanol, 318.15 K) was 0.00667 and the solubility (mole fraction) (in sec-butanol, 323.15 K) was 0.00768.
